From patent US12251449B2, “Synthetic multidomain peptide biomaterials that inhibit inducible nitric oxide synthase” (William Marsh Rice University, priority 2019, dated 2025)
*1 amine or outer side, *2 acyl side, *3 side chain or, on linkers, in order; H or OH if unused. Where a SMILES comes first, the peptide text is derived from it. [ ]: non-standard residue; d: D form. X1 = CC(=N)NCCCC[C@H](N[*:1])C(=O)[*:2]

Tests used:
MOC1 tumors = experiment: MOC orthotopic murine model of oral cancer (Example 9); conditions: established 4-5 mm MOC1 tumors, single 30 μl intratumoral injection
Method: MOC orthotopic murine model of oral cancer. MOC1 tumors were established by injecting 2×10^6 cells (70%:30% cells: Matrigel®Matrix) into the maxillary vestibule of the left oral cavity in C57BL/6J mice. […] Tumor growth was monitored by tumor size measurements (in diameter) taken at least two times per week using digital calipers to measure the longest dimension (single dimension). Data was then analyzed for Kaplan-Meier survival and tumor growth curves. […] Excessive tumor burden, defined as tumor diameter reaching 12 mm, tumor ulceration, or a weight loss of greater than 20% were factors that were considered for all endpoints in tumor growth and survival data.
Statistical methods. Statistical analyses were performed using Prism 7.0 (GraphPad, San Diego, CA). Statistical analyses for Kaplan-Meier survival curves were performed using the Log-rank/Mantel-Cox test. Statistical significance for tumor growth curves was determined by a two-way ANOVA test followed by selected comparison using Tukey's multiple comparison tests with multiple comparison correction. All p values were two-sided and p values less than 0.05 were considered significant.

iNOS = target: T1, iNOS (Mus musculus, UniProt P29477); experiment: iNOS knockdown in vitro Greiss assay; format: cell-based
T1 construct: endogenous in cells; host or cells: RAW 264.7 murine macrophages stimulated with LPS and IFN-gamma
T1 sequence (P29477 1-1144): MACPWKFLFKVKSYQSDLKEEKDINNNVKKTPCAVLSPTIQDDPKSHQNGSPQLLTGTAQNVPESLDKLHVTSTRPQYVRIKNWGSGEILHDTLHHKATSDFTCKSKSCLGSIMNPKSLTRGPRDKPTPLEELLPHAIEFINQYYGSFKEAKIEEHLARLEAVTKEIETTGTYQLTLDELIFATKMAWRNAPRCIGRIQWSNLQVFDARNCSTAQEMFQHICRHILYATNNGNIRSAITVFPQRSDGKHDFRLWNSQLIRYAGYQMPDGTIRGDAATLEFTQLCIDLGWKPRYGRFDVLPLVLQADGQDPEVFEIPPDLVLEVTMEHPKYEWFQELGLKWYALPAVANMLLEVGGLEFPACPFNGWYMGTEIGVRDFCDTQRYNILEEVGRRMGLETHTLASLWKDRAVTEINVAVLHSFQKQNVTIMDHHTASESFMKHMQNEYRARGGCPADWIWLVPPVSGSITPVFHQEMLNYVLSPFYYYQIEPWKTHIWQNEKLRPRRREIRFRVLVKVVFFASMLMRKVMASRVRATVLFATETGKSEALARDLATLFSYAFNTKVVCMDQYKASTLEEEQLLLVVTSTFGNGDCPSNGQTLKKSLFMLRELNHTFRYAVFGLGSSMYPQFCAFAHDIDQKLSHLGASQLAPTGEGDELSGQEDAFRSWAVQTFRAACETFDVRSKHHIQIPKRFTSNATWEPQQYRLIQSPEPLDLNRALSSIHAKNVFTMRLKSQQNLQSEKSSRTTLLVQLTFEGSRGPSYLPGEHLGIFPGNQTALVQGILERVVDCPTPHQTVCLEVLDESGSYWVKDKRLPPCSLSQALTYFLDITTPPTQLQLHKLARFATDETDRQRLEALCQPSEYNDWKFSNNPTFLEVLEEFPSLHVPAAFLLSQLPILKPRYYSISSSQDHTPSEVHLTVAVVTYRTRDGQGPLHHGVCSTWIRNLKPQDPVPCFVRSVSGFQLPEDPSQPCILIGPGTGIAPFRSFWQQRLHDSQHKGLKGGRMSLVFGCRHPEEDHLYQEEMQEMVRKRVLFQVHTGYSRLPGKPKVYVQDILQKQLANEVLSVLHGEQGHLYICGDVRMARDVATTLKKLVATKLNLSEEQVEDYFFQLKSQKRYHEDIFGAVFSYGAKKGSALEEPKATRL
Method: iNOS knockdown in vitro Greiss assay. To evaluate the iNOS knockdown efficacy of various materials, the following procedure was used to test % iNOS inhibition of RAW 264.7 cells stimulated with Lipopolysaccharide (LPS, Thermo Fisher Scientific, Rockford, IL) and recombinant mouse IFN-7 (Biolegend, San Diego, CA). RAW macrophages were prepared at a stock concentration of 2.5×10^6 cells/mL, and plated at 2.5×10^5 cells per well in 24-well plates. For samples testing the efficacy of 2-D surface cell culture, 200 μL of MDP hydrogels was applied to evenly coat the surface of each well before addition of cells. Each experimental condition was performed in triplicate. The following controls were included in every experiment, 1) media alone, 2) stimulated cells alone, and 3) unstimulated cells alone. To each well, stimulation media or normal media was then added based on experimental requirement. Stimulation media was prepared with LPS (final concentration 1 μg/mL) and IFN-7 (final concentration 100 U/mL). For samples testing material efficacy in solution (e.g. free L-NIL), after 6 hrs of incubation at 37° C. with 5% CO2 the desired concentration of inhibitor was added to achieve a range of concentrations between 1 μM and 1 mM.
In all cases after 24 hours from time of stimulation, samples of cell media were collected from each well after mixing media by pipetting before collection. Media samples were placed into a 96-well plate and centrifuged at 5000 rpm for 10 min. Supernatants were removed and placed in a new clear 96-well plate, and samples were immediately analyzed using a colorimetric Greiss Assay (Cayman Chemical, Ann Arbor, MI) to assess nitrite levels (Bryan & Grisham, 2007). Color was allowed to develop for 10 min following addition of Greiss reagents, and absorbance was read at 540 nm on a plate reader. Percent iNOS inhibition for each sample was calculated by first subtracting the absorbance of the media-only baseline, and then converting to a percent of maximum nitrite signal as determined by the internal standard of stimulated cells alone.

[1] = IgG release kinetics from hydrogels; format: physicochemical; conditions: compared with alginate and K2-MDP
Text: Whether the drug-mimicking L-NIL-MDP hydrogel could effectively load and control the delivery of IgG compared to other biomaterials was investigated.

B16-F0 melanoma tumors = experiment: Tumor growth in the B16-F0 melanoma model; format: in vivo, mice; conditions: monotherapy, single intratumoral injection
Method: Evaluation of in vivo VEGF reduction using murine B16-F0 melanoma tumor model. C57BL/6J male mice were purchased from The Jackson Laboratory. Tumor inoculation was performed when mice reached 10-14 weeks of age. All experiments were performed with approval of IACUC at Baylor College of Medicine (BCM) and followed established protocols. B16-F0 melanoma cell line was purchased from American Type Culture Collection (ATCC) and maintained according to manufacturer instructions (DMEM high-glucose with 10% fetal bovine serum and 1% penicillin/streptomycin). C57BL/6J mice were injected subcutaneously (s.c.) with 3×10^5 B16-F0 cells in a single flank. Once tumors became palpable (day 7 post-inoculation) mice were injected intratumorally (i.t.) with either vehicle buffer control Hank's Balanced Salt Solution (HBSS), free L-NIL dissolved in HBSS at 20 mM, K2-MDP hydrogel at 1 wt. % (5.6 mM peptide), or L-NIL-MDP hydrogel at 1 wt. % (5.2 mM peptide, or approximately 20 mM L-NIL functional groups). All injections were done using 100 μL total injection volume.

In the case of `CC(=N)NCCCC[C@H](NC(=O)[C@H](CCCCNC(C)=N)NC(=O)[C@H](CC(C)C)NC(=O)[C@H](CO)NC(=O)[C@H](CC(C)C)NC(=O)[C@H](CO)NC(=O)[C@H](CC(C)C)NC(=O)[C@H](CO)NC(=O)[C@H](CC(C)C)NC(=O)[C@H](CO)NC(=O)[C@H](CC(C)C)NC(=O)[C@H](CO)NC(=O)[C@H](CC(C)C)NC(=O)[C@H](CO)NC(=O)[C@H](CCCCNC(C)=N)NC(=O)[C@H](CCCCNC(C)=N)NC(C)=O)C(N)=O` [L-NIL-MDP] (Ac-[X1][X1]SLSLSLSLSLSL[X1][X1]-NH2), the median survival (MOC1 tumors) is reported as 44 days, the “free L-NIL concentration giving a comparable level of iNOS inhibition” value (iNOS; hydrogel surface culture compared with free L-NIL in solution) is reported as roughly 100 µM and the “iNOS inhibition (in words)” value (iNOS; stimulated RAW macrophages cultured on the hydrogel) is reported as “greatest degree of iNOS inhibition”. For the same compound, the “control of IgG release (in words)” value [1] was “able to control the release of IgG more effectively” and the “tumor growth reduction (in words)” value (B16-F0 melanoma tumors) was “no favorable effect on tumor growth reduction”.
